From ChEMBL document CHEMBL2176956, “Application of structure-based drug design and parallel chemistry to identify selective, brain penetrant, in vivo active phosphodiesterase 9A inhibitors” (J Med Chem, 2012) come the findings set out here.

The nature of this data set: Clearance in human liver microsomes. It counts as ADME, Microsome. The following applies: read-out: CLH.

Take `O=c1[nH]c(Cc2ccccc2)nc2c1cnn2C1CCCC1`: the CLint scaled was determined as 200 mL/min/kg.
